Experimental data as given in PubChem BioAssay (NCI).
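How tested: cells in 96-well plates exposed to compound for 48 hours at five concentrations. Abbreviation: GI50, concentration required for 50% inhibition of growth. Definition used: TGI = concentration required for complete inhibition of growth.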

What was measured:
Assay in all cases: growth of human tumour cells (NCI), 48 h
TK-10 renal = system: TK-10 renal
RXF 393 renal = system: RXF 393 renal
SF-268 CNS = system: SF-268 CNS
HL-60(TB) leukemia = system: HL-60(TB) leukemia
MALME-3M melanoma = system: MALME-3M melanoma
OVCAR-3 ovarian = system: OVCAR-3 ovarian
NCI-H23 lung = system: NCI-H23 lung
KM12 colon = system: KM12 colon
SN12C renal = system: SN12C renal
A549 NSCLC = system: A549 NSCLC

SMILES | TGI (TK-10 renal) [µM] | TGI (RXF 393 renal) [µM] | TGI (SF-268 CNS) [µM] | TGI (HL-60(TB) leukemia) [µM] | TGI (MALME-3M melanoma) [µM] | TGI (OVCAR-3 ovarian) [µM] | TGI (NCI-H23 lung) [µM] | TGI (KM12 colon) [µM] | TGI (SN12C renal) [µM] | TGI (A549 NSCLC) [µM] | GI50 (TK-10 renal) [µM] | GI50 (RXF 393 renal) [µM] | GI50 (SF-268 CNS) [µM] | GI50 (HL-60(TB) leukemia) [µM] | GI50 (MALME-3M melanoma) [µM] | GI50 (OVCAR-3 ovarian) [µM] | GI50 (NCI-H23 lung) [µM] | GI50 (KM12 colon) [µM] | GI50 (SN12C renal) [µM] | GI50 (A549 NSCLC) [µM]
CCOC1=C/C(=N\Nc2ccc([N+](=O)[O-])cc2)CCC1 | > 100 | 63.1 | 44.9 | > 100 | > 100 | > 100 | 94.1 | > 100 | > 100 | > 100 |  |  |  |  |  |  |  |  |  | 
COc1cc(C=NCC(=O)CSC(c2ccccc2)c2ccccc2)ccc1O | 53.7 | 26.8 | 40 | 27.6 | 22.4 | 24.9 | 20.5 | 26.3 | 28.1 | 26 | 14.7 | 13.4 | 17.2 | 11.4 | 6.11 | 11.3 | 8 | 11.9 | 14.1 | 10.7
Cc1nc(C(=O)OCc2ccccc2)cc(OCc2ccccc2)c1C | > 100 | 28 | 41.6 | 25 | 52.1 | 26.2 | 36.8 | > 87.6 | 35.4 | 49.4 | 50.4 | 13.5 | 17.5 | 1.53 | 24.4 | 11.4 | 15.3 | 29 | 17.5 | 19.3
COc1cccc(C=NC23CC4CC(CC(C4)C2)C3)c1 | > 100 | > 100 | > 100 | > 100 | > 100 | > 100 | > 100 | > 100 | > 100 | > 100 |  |  |  |  |  |  |  |  |  | 
C=C(CN1CCc2ccccc2C1)c1ccc(CCCC(=O)Nc2ccccc2N)cc1 | > 100 | 35.7 | > 100 | 31.3 | 25.7 | 22.2 | 48.6 | 27.2 | 28.4 | 58.8 | 41.3 | 17.1 | > 100 | 7.13 | 11.7 | 9.81 | 20.1 | 11.1 | 13 | 16.4
CC(C)C(Br)C(=O)NCC(=O)O (stereo not given) | > 100 | > 100 | > 100 | > 100 | > 100 | > 100 | > 100 | > 100 | > 100 | > 100 |  |  |  |  |  |  |  |  |  | 
CCOC(=O)NN1C(=O)C(=P(c2ccccc2)(c2ccccc2)c2ccccc2)C(C(=O)OC)=C1C | > 100 | > 100 | > 100 | > 100 | > 100 | > 100 | > 100 | > 100 | > 100 | > 100 |  |  |  |  |  |  |  |  |  | 
O=S1(=O)CCC2=CC(C(F)(F)F)=CC(C(F)(F)F)=CN21 | 2.13 | 6.01 | 4.68 | 3.9 | 2.26 | 3.14 | 3.37 | 3.54 | 3.38 | 9.45 |  |  |  |  |  |  |  |  |  | 
COc1ccc2c(CN3CCCC[C@H]3O)cc3cc4c(cc3c2c1)OCO4 | 6.97 | 0.95 | 5.74 | 1.35 | 0.61 | 3.4 | 1.82 | 5.22 | 4.06 | 2.82 | 0.702 | 0.191 | 0.417 | 0.351 | 0.218 | 0.409 | 0.445 | 0.48 | 0.326 | 0.28
O=C(Nc1ccccc1)N1C(c2ccccc2)=N[C@@H](c2ccccc2)[C@@H]1c1ccccc1 | 76.1 | 34.2 | 49.2 | 46.5 | 34.7 | 62.8 | 55.4 | 34 | 47.2 | 52 |  |  |  |  |  |  |  |  |  | 
CN(Cc1cnc2nc(N)nc(N)c2n1)c1c(Cl)cc(C(=O)NC(CCC(=O)O)C(=O)O)cc1Cl (stereo not given) | > 100 | > 100 | > 100 | > 100 | > 100 | > 100 | > 100 | > 100 | > 100 | > 100 | 1.88 | 0.731 | < 0.0169 | < 0.01 | 81.4 | 0.0685 | 0.0277 | < 0.0137 | < 0.01 | < 0.0116
CCOC(=N)CC(=O)Nc1ccccc1CC | > 100 | > 100 | > 100 | > 100 | > 100 | > 100 | > 100 | > 100 | > 100 | > 100 |  |  |  |  |  |  |  |  |  | 
CCN(CC)c1ccc(/C=N/N=C(N)N)cc1 | 28.4 | 11.7 | 82.5 | 7.95 | 18.7 | 4.91 | 50.6 | 16.4 | 27.2 | > 100 | 7.87 | 2.85 | 5.43 | 2.84 | 4.45 | 2.21 | 4.59 | 3.47 | 4.88 | 4.99
Cc1nc(Nc2ccc(Cl)cc2)sc1C(=O)Nc1cccc2c(=O)[nH][nH]c(=O)c12 | > 100 | 69.2 | > 100 | 45.2 | 80.3 | 40.4 | 40.5 | > 100 | > 100 | > 100 |  |  |  |  |  |  |  |  |  | 
COc1cc(N)c(Cl)cc1C(=O)N[C@@H]1CCN(CCCOc2ccc(F)cc2)C[C@@H]1OC | > 100 | > 100 | > 100 | > 100 | > 100 | > 100 | > 100 | > 100 | > 100 | > 100 | > 100 | > 100 | > 100 | 82.4 | > 100 | > 100 | > 100 | 33.3 | > 100 | > 100
Cc1cccc(C=NC23CC4CC(CC(C4)C2)C3)c1 | > 100 | > 100 | > 100 | > 100 | > 100 | > 100 | > 100 | > 100 | > 100 | > 100 |  |  |  |  |  |  |  |  |  | 
O=C1C(=O)N(c2cc(Cl)ccc2Cl)C(=O)C(=O)C1c1nc2ccccc2s1 | > 100 | > 100 | > 100 | > 100 | > 100 | > 100 | > 100 | > 100 | > 100 | > 100 |  |  |  |  |  |  |  |  |  | 
C/C(=N\NC(=S)N1CCCC1)c1ccccn1 | 13.7 | 7.14 | 12.7 | 0.229 | 1.64 | 12.1 | 42.8 | 15.2 | 11.8 | 10.5 | 0.105 | 0.188 | 0.0261 | 0.01 | < 0.0349 | < 0.01 | < 0.01 | < 0.01 | 0.0132 | < 0.01
O=C1C=C(NCCc2ccccc2)c2ccccc2C1=O | 27.3 | 20.4 | 23.1 | 13.6 | 2.47 | 5.59 | 5.67 | 8.72 | 3.37 | 3.79 |  |  |  |  |  |  |  |  |  | 
